ChEMBL document CHEMBL4622875, “(3,3″)-Linked Biflavanones from Ouratea spectabilis and Their Effects on the Release of Proinflammatory Cytokines in THP-1 Cells” (J Nat Prod, 2020)
The source made the active and inactive calls. No cut-off for these calls is given here.

Columns and labels:
THP-1 [1] = experiment: Antiinflammatory activity in human THP1 cells assessed as reduction in LPS-induced IL-1beta secretion at 10 to 90 uM preincubated for 3 hrs followed by LPS stimulation and measured after 18 hrs by ELISA; format: functional, cell-based
[2] = Cytotoxicity against human THP1 cells assessed as cell viability at 10 to 90 uM incubated for 18 hrs by sulforhodamine B assay relative to control; format: cell-based; details: THP-1 cells, read-out: Activity
THP-1 [3] = experiment: Antiinflammatory activity in human THP1 cells assessed as reduction in LPS-induced TNF secretion at 10 to 90 uM preincubated for 3 hrs followed by LPS stimulation and measured after 18 hrs by ELISA; format: functional, cell-based
THP-1 [4] = experiment: Antiinflammatory activity in human THP1 cells assessed as reduction in LPS-induced CCL2 secretion preincubated for 3 hrs followed by LPS stimulation and measured after 18 hrs by ELISA; format: functional, cell-based

Question: Which Activity (THP-1 [1]) does the source give for `O=C1c2c(O)cc(O)cc2O[C@H](c2ccc(O)cc2)[C@@H]1[C@@H]1C(=O)c2c(O)cc(O)cc2O[C@@H]1c1ccc(O)cc1` [NEOCHAMAEJASMIN A] here?
Answer: Its Activity is “inactive”.

Question: What about the viability at 18 h, up to 90 µM [2] of the same compound?
Answer: Its viability at 18 h, up to 90 µM is over 90%.

Question: What about the Activity (THP-1 [3]) of the same compound?
Answer: The Activity was “inactive”.

Question: For `COc1cc(O)c2c(c1)O[C@H](c1ccc(O)cc1)[C@H]([C@@H]1C(=O)c3c(O)cc(OC)cc3O[C@@H]1c1ccc(O)cc1)C2=O`, which Activity (THP-1 [1]) is on record?
Answer: The Activity was “inactive”.

Question: And the viability at 18 h, up to 90 µM [2]?
Answer: Its viability at 18 h, up to 90 µM is over 90%.

Question: And the Activity (THP-1 [3])?
Answer: The Activity was “inactive”.

Question: Which results are given for `COc1cc(O)c2c(c1)O[C@H](c1ccc(O)cc1)[C@@H]([C@H]1C(=O)c3c(O)cc(OC)cc3O[C@@H]1c1ccc(O)cc1)C2=O`?
Answer: Activity (THP-1 [1]): inactive; viability at 18 h, up to 90 µM [2]: > 90%; Activity (THP-1 [3]): inactive; IC50 (THP-1 [4]): 3.1 µM

Question: With `COc1cc(O)c2c(c1)O[C@H](c1ccc(O)cc1)[C@@H]([C@H]1C(=O)c3c(O)cc(O)cc3O[C@@H]1c1ccc(O)cc1)C2=O` as the compound, how does the Activity (THP-1 [1]) read?
Answer: Its Activity is “inactive”.

Question: What about the viability at 18 h, up to 90 µM [2] of the same compound?
Answer: Its viability at 18 h, up to 90 µM is over 90%.

Question: And the Activity (THP-1 [3])?
Answer: The Activity was “inactive”.
